From patent US20130225534A1, “METHODS FOR TREATING AN INORGANIC SLURRY” (Rhodia Operations, priority 2003, published 2013)

Test system: bacterial contamination of calcium carbonate-based slurry
Settings: THPS solution added to calcium carbonate-based slurry; in 2 hours

Substance: tetrakis(hydroxymethyl)phosphonium sulphate [THPS]
- reduction in bacterial count: 10^4
